The values below are quoted from earlier work in patent publication US8877698B2, “Method and composition for disinfecting hard surfaces” (priority 2001, dated 2014).

The series deals with poliovirus.

Take `CCO` [ethanol]: the “minimum concentration required to inactivate poliovirus” value was 70% and the “virucidal action against poliovirus” value is reported as “little virucidal action”.
